From paper PMC10215199 (Antioxidants, 2023) come the findings set out here.

Where a name gives a salt, the structure may show the parent alone.

As a reminder, the inhibition is the drop in the measured response relative to a control, in per cent. As a reminder, the IC50 is the concentration that inhibits the measured activity by half.

One assay concerns the target T1, recombinant human MAO-B (Homo sapiens, UniProt P27338).
T1 construct: purchased Sigma Aldrich
T1 sequence (P27338 1-520): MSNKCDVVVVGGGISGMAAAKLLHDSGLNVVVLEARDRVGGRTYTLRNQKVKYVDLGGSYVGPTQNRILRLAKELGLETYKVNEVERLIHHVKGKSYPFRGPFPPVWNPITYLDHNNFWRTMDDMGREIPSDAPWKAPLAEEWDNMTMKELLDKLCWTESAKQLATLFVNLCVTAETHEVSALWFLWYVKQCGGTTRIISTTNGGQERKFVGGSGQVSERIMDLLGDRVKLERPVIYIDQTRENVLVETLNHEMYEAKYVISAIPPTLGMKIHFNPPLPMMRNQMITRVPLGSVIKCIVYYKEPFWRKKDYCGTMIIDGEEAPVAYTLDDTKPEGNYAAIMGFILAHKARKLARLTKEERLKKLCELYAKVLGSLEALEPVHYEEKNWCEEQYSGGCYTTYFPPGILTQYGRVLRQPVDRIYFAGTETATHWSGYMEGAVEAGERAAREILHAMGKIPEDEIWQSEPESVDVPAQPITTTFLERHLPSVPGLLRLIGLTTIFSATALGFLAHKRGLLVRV
Kind of assay: biochemical. Particulars: ±sem; for inhibition at 10 µM: single dose concentration of 10 µM; for IC50: five doses.

The target of a further assay is T2, recombinant human MAO-A (Homo sapiens, UniProt P21397).
T2 sequence (P21397 1-527): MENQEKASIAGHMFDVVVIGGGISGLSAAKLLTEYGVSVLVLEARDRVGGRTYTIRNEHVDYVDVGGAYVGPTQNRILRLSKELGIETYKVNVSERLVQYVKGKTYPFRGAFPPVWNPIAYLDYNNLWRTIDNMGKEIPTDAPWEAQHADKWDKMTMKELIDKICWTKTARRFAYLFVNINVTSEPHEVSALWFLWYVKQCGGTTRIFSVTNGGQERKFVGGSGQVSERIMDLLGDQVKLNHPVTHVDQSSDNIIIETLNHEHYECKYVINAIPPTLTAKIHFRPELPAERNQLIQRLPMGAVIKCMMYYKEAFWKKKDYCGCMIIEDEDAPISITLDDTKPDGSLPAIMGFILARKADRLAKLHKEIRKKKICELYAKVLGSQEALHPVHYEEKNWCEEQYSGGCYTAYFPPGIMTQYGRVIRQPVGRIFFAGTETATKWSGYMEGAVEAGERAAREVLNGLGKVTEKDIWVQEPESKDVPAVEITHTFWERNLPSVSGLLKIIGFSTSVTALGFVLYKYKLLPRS
Put plainly: Monoamine oxidase-A inhibition assay (Amplex red fluorescence). The format is biochemical. Particulars: ±sem; for inhibition at 1 µM: single dose concentration of 1 µM, NI = no measured inhibition, read-out: % Inhibition MAO-A; for inhibition at 100 µM: read-out: MAO-A % Inhibition; for IC50: read-out: MAO-A IC50. Here is the method:
Two isoforms of MAOs, namely MAO-A and MAO-B, are expressed in CNS, showing different substrate specificity. Consequently, different pharmacological effects can be elicited depending on the inhibited MAO isoform. Therefore, the prepared O^6-aminoalkyl-hispidol analogs were evaluated against both recombinant human MAO-A and MAO-B isoforms following the well-established spectrophotometric method.
2. Biological evaluations
2.1. In vitro assay of human monoamine oxidases inhibition
The MAO activity was quantified by measuring fluorescence intensity evoked by Amplex red reaction in which Amplex red reacts with hydrogen peroxide from the MAO reaction to produce highly fluorescent resorufin. The test compound in DMSO (final concentration: 1 nM – 10 μM or 10 nM – 100 μM ) and hMAO enzyme (Sigma Aldrich, St. Louis, MO, USA) in 50 mM sodium phosphate buffer (pH 7.4, final protein amount: ~1.25 μg of MAO-A/well and 2.5 μg of MAO-B/well) were loaded on 96-well black plate and incubated for 15 min at 37 °C. Then working solution of 200 μM Amplex Red (Cayman, Ann Arbor, MI, USA), 1 U/mL horseradish peroxidase (Sigma-Aldrich) and 1 mM substrate (p-tyramine for MAO-A, benzylamine for MAO-B, Sigma-Aldrich) in 50 mM sodium phosphate buffer (pH 7.4) was added and incubated for 20 min at 37 °C in the dark. The fluorescence was measured using a microplate reader (SpectraMax®i3, Molecular Device, San Jose, CA, USA) with an excitation at 545 nm and an emission at 590 nm. […]
of compounds were determined as the mean ± S.E.M. in triplicate from the dose-response inhibition curves using SigmaPlot® 13.0.

[1] abbreviates: single dose concentration of 100 µM.

Turning to `COc1ccccc1/C=C1\Oc2cc(OCCN3CCCC3)ccc2C1=O` [Compound 3ab], the inhibition at 10 µM at recombinant human MAO-B amounted to 43 ± 0.55%. Also, on recombinant human MAO-A, the inhibition at 1 µM is < 0%.

Turning to `COc1ccccc1/C=C1\Oc2cc(OCCCN3CCCC3)ccc2C1=O` [Compound 3ac], on recombinant human MAO-B, the inhibition at 10 µM was determined as 32.27 ± 0.23%. Besides, the inhibition at 1 µM on recombinant human MAO-A is 1.31 ± 0.82%.

As for `CCN(CC)CCOc1ccc2c(c1)O/C(=C\c1cccc(OC)c1)C2=O` [Compound 3ad], the inhibition at 10 µM at recombinant human MAO-B turned out to be 46.09 ± 0.11%. Also, on recombinant human MAO-A, the inhibition at 1 µM was < 0%.

In the case of `CCN(CC)CCCOc1ccc2c(c1)O/C(=C\c1cccc(OC)c1)C2=O` [Compound 3ae], the inhibition at 10 µM at recombinant human MAO-B is 18.8 ± 0.45%. Moreover, at recombinant human MAO-A, the inhibition at 1 µM was < 0%.

Consider `COc1cccc(/C=C2\Oc3cc(OCCN4CCCC4)ccc3C2=O)c1` [Compound 3af], for which the inhibition at 10 µM on recombinant human MAO-B came out at 39.1 ± 0.96%. Also, at recombinant human MAO-A, the inhibition at 1 µM was < 0%.

On to `COc1cccc(/C=C2\Oc3cc(OCCCN4CCCC4)ccc3C2=O)c1` [Compound 3ag], for which the inhibition at 10 µM at recombinant human MAO-B is 16.99 ± 0.11%. The inhibition at 1 µM at recombinant human MAO-A is 12.2 ± 1.05%.

Turning to `COc1cccc(/C=C2\Oc3cc(OCCCN4CCCCC4)ccc3C2=O)c1` [Compound 3ah], the inhibition at 10 µM on recombinant human MAO-B worked out at 18.1 ± 1.83%. Also, at recombinant human MAO-A, the inhibition at 1 µM was < 0%.

Regarding `COc1cccc(/C=C2\Oc3cc(OCCN4CCOCC4)ccc3C2=O)c1` [Compound 3ai], the inhibition at 10 µM on recombinant human MAO-B amounted to 27.9 ± 0.37%. The inhibition at 1 µM at recombinant human MAO-A stood at 4.1 ± 0.48%.

Take `COc1ccc(/C=C2\Oc3cc(OCCN4CCCC4)ccc3C2=O)cc1` [Compound 3aj]: the inhibition at 10 µM at recombinant human MAO-B stood at 39.26 ± 0.03%. Moreover, the inhibition at 1 µM on recombinant human MAO-A amounted to 3.26 ± 0.75%.

Consider `COc1ccc(/C=C2\Oc3cc(OCCCN4CCCC4)ccc3C2=O)cc1` [Compound 3ak], for which the inhibition at 10 µM at recombinant human MAO-B amounted to 45.64 ± 0.08%. Also, the inhibition at 1 µM at recombinant human MAO-A turned out to be 9.83 ± 0.64%.

Consider `COc1ccc(/C=C2\Oc3cc(OCCN4CCCCC4)ccc3C2=O)cc1` [Compound 3am], for which the inhibition at 10 µM on recombinant human MAO-B worked out at 20.6 ± 0.79%. For the same molecule, the inhibition at 1 µM at recombinant human MAO-A amounted to 0.92 ± 0.83%.

With `COc1ccc(/C=C2\Oc3cc(OCCN4CCCC4)ccc3C2=O)cc1OC` [Compound 3an], at recombinant human MAO-B, the inhibition at 10 µM worked out at 48.1 ± 1.46%. The inhibition at 1 µM at recombinant human MAO-A is < 0%.

With `COc1ccc(/C=C2\Oc3cc(OCCCN4CCCC4)ccc3C2=O)cc1OC` [Compound 3ao], on recombinant human MAO-B, the inhibition at 10 µM stood at 39.2 ± 0.58%. On recombinant human MAO-A, the inhibition at 1 µM is < 0%.

Take `COc1ccc(/C=C2\Oc3cc(OCCN4CCCCC4)ccc3C2=O)cc1OC` [Compound 3ap]: on recombinant human MAO-B, the inhibition at 10 µM was 50.81 ± 0.44% and the IC50 was determined as 10.18 ± 0.099 µM. On recombinant human MAO-A, the inhibition at 1 µM was < 0% and the IC50 is > 100 µM. Further, the “MAO-A % Inhibition” value on recombinant human MAO-A (single dose concentration of 100 µM, 100 µM) is given as 22.52 ± 0.04%. Moreover, the inhibition at 100 µM on recombinant human MAO-A (setting [1]) is ~23%.

With `COc1ccc(/C=C2\Oc3cc(OCCCN4CCCCC4)ccc3C2=O)cc1OC` [Compound 3aq], at recombinant human MAO-B, the inhibition at 10 µM is 4.51 ± 1.3%. For the same molecule, at recombinant human MAO-A, the inhibition at 1 µM is < 0%.

For the molecule `COc1ccc(/C=C2\Oc3cc(OCCCCN4CCCCC4)ccc3C2=O)cc1OC` [Compound 3ar], the inhibition at 10 µM on recombinant human MAO-B is 3.89 ± 1.63%. Moreover, the inhibition at 1 µM at recombinant human MAO-A is < 0%.

`COc1ccc(/C=C2\Oc3cc(OCCCCCN4CCCCC4)ccc3C2=O)cc1OC` [Compound 3as, (Z)-2-(3,4-Dimethoxybenzylidene)-6-(5-(piperidin-1-yl)pentoxy)benzofuran-3(2H)-one hydrochloride]: the inhibition at 10 µM on recombinant human MAO-B came to 4.76 ± 1.91%. At recombinant human MAO-A, the inhibition at 1 µM was < 0%.

Take `COc1cc(/C=C2\Oc3cc(OCCN4CCCC4)ccc3C2=O)cc(OC)c1` [Compound 3at]: the inhibition at 10 µM at recombinant human MAO-B turned out to be 36.8 ± 0.44%. Moreover, the inhibition at 1 µM at recombinant human MAO-A is < 0%.

Turning to `COc1cc(/C=C2\Oc3cc(OCCCN4CCCC4)ccc3C2=O)cc(OC)c1` [Compound 3au], at recombinant human MAO-B, the inhibition at 10 µM amounted to 21.2 ± 0.3%. Besides, the inhibition at 1 µM on recombinant human MAO-A was < 0%.

`COc1cccc(/C=C2\Oc3cc(OCCN4CCCC4)ccc3C2=O)c1OC` [Compound 3av]: on recombinant human MAO-B, the inhibition at 10 µM is 2.61 ± 1.78%. The inhibition at 1 µM on recombinant human MAO-A turned out to be 12.6 ± 0.32%.

For the molecule `COc1ccc(/C=C2\Oc3cc(OCCN4CCCC4)ccc3C2=O)c(OC)c1` [Compound 3aw], the inhibition at 10 µM on recombinant human MAO-B amounted to 41.6 ± 1.03%. The inhibition at 1 µM on recombinant human MAO-A was found to be 12.7 ± 0.54%.

Consider `COc1ccc(OC)c(/C=C2\Oc3cc(OCCN4CCCC4)ccc3C2=O)c1` [Compound 3ax], for which, on recombinant human MAO-B, the inhibition at 10 µM came out at 65.05 ± 0.43% and the IC50 was 3.16 ± 0.036 µM. Further, at recombinant human MAO-A, the inhibition at 1 µM was < 0% and the IC50 was > 100 µM. In addition, on recombinant human MAO-A (setting [1]), the inhibition at 100 µM is ~28%.

Consider `COc1cccc(/C=C2\Oc3cc(OCCCN4CCCC4)ccc3C2=O)c1OC` [Compound 3ay], for which the inhibition at 10 µM on recombinant human MAO-B turned out to be 4.37 ± 0.9%. Further, the inhibition at 1 µM on recombinant human MAO-A was < 0%.

On to `COc1ccc(/C=C2\Oc3cc(OCCCN4CCCC4)ccc3C2=O)c(OC)c1` [Compound 3az], for which the inhibition at 10 µM on recombinant human MAO-B is 35.87 ± 0.17%. Besides, the inhibition at 1 µM on recombinant human MAO-A was < 0%.

On to `COc1ccc(OC)c(/C=C2\Oc3cc(OCCCN4CCCC4)ccc3C2=O)c1` [Compound 3ba], for which the inhibition at 10 µM at recombinant human MAO-B came out at 20.3 ± 0.49%. The inhibition at 1 µM on recombinant human MAO-A is < 0%.

With `COc1ccc(/C=C2\Oc3cc(OCCN4CCCC4)ccc3C2=O)c(OC)c1OC` [Compound 3bb], at recombinant human MAO-B, the inhibition at 10 µM stood at 23.9 ± 0.81%. Besides, the inhibition at 1 µM on recombinant human MAO-A is < 0%.

Turning to `COc1cc(/C=C2\Oc3cc(OCCN4CCCCC4)ccc3C2=O)cc(OC)c1OC` [Compound 3bd], the inhibition at 10 µM on recombinant human MAO-B was determined as 27.9 ± 0.36%. The inhibition at 1 µM at recombinant human MAO-A was < 0%.
